# Results published in patent publication US7704986B2, “Vitamin D3 analogues for the prevention and treatment of bone disorders” (K.U. Leuven Research and Development, priority 2004, dated 2010).
# “And” between values parts separate entries of the source, which are not always exact repeats. Identical values can stand only once.
# Tests used:
# [1] = tested on: SHAM or OVX operated C3H mice; test: Ovariectomized mice model for primary prevention of osteoporosis; format: in vivo; conditions: 0.5 μg/kg i.p.
# Method: Twelve-week-old C3H mice were randomly divided into four groups (9-13 mice/group). Two groups of mice were SHAM-operated (SHAM) and two groups were ovariectomized (OVX). Three days after the surgical procedure the SHAM and OVX mice were injected with MV2 intraperitoneally at 0.5 μg/kg/2days (4 times per week) or vehicle (arachis oil). The mice were treated for 8 weeks. At the beginning (before the first injection) of the experiment, bone mineral density (BMD) and bone mineral content (BMC) were determined by dual-energy X-ray absorptiometry (hereinafter referred as DEXA) and serum calcium levels were determined by a microcolorimetric assay. The animals were weighted regularly during the experimental period.
# At the end of the experiment serum calcium levels, BMD and BMC were again measured. Trabecular and cortical bone mineral content (BMC) and bone mineral density (BMD) and the geometry of the femur were assessed by a Stratex XCT densitometer (pQCT). Femur calcium content was measured in HCl-dissolved bone ash (obtained by heating for 24 hours in an oven at 100° C.), using a microcolorimetric assay. […] Statistical analysis was performed with the software program NCSS (NCSS, Kaysville, Utah, USA). ANOVA analyses followed bye Fisher's least significant (LSD)-multiple comparison tests were carried out to detect significant differences, p<0.05 was accepted as significant.
# [2] = tested on: normal (no surgery) C3H female mice; test: Oral gavage versus i.p. in normal (no surgery) mice, 5 weeks; format: in vivo; conditions: for BMC total body, SHAM + vitaminD analogue vs. SHAM + vehicle (= 100%) in % / BMD spine, SHAM + vitaminD analogue vs. SHAM + vehicle (= 100%) in % / BMD total body, SHAM + vitaminD analogue vs. SHAM + vehicle (= 100%) in %: DEXA, 5 weeks, increase (↑)
# Method: Besides injecting the compound MV2 intraperitoneally (results in table 3), it was also given orally by gavage in normal (no surgery) C3H female mice and the biological effects were investigated as described before. MV2 given orally at a dose of 1 μg/kg/2days (3 times per week) during 5 weeks was as effective as intraperitoneal injections at a dose of 0.5 μg/kg/2 days (4 times per week) during 5 weeks in C3H mice (Table 4).
# [3] = DEXA, OVX mice, 8 weeks, increase (↑)
# [4] = DEXA, SHAM mice, 8 weeks, increase (↑)
# [5] = calculated from pQCT femur, OVX mice, 8 weeks, increase (↑)
# [6] = calculated from pQCT femur, SHAM mice, 8 weeks, increase (↑), * not significant
# [7] = pQCT femur, OVX mice, 8 weeks, increase (↑)
# [8] = pQCT femur, SHAM mice, 8 weeks, increase (↑)
# [9] = 0.5 μg/kg/2 days i.p. 4 times per week
# [10] = 1 μg/kg/2 days orally 3 times per week
smiles,measurement,setting,value
"C[C@H](CC#CC(O)(C(F)(F)F)C(F)(F)F)[C@@]1(C)CC[C@@H](/C=C/C=C2C[C@@H](O)C[C@H](O)C2)C1(C)C [MV2, (1R,3R)-5-((E)-3-((1S,3R)-3-((1R)-6,6,6-trifluoro-5-hydroxy-1-methyl-5-trifluoromethyl-3-hexynyl)-2,2,3-trimethylcyclopentyl)-2-propenylidene)cyclohexane-1,3-diol]",body weight during treatment,[1]; 8 weeks,no animals lost weight
same,serum calcium levels (no hypercalcemic effects),[1]; end of 8 weeks,below 11.5 mg/dl
same,"BMC total body, OVX + analogue vs. OVX + vehicle (= 100%) in %",[1]; [3],19% and 19 ↑ %
same,"BMD spine, OVX + analogue vs. OVX + vehicle (= 100%) in %",[1]; [3],22% and 22 ↑ %
same,"BMD total body, OVX + analogue vs. OVX + vehicle (= 100%) in %",[1]; [3],9% and 9 ↑ %
same,"BMC total body, SHAM + analogue vs. SHAM + vehicle (= 100%) in %",[1]; [4],16% and 16 ↑ %
same,"BMD spine, SHAM + analogue vs. SHAM + vehicle (= 100%) in %",[1]; [4],11% and 11 ↑ %
same,"BMD total body, SHAM + analogue vs. SHAM + vehicle (= 100%) in %",[1]; [4],9% and 9 ↑ %
same,"increase in calcium content in femur, OVX treated animals compared to control animals","[1]; OVX mice, 8 weeks",14%
same,"increase in calcium content in femur, SHAM treated animals compared to control animals","[1]; SHAM mice, 8 weeks",12%
same,"Moment of inertia, OVX analogue versus OVX vehicle (=100%) in %",[1]; [5],12 ↑ %
same,"Moment of resistance, OVX analogue versus OVX vehicle (=100%) in %",[1]; [5],8 ↑ %
same,"Moment of inertia, SHAM analogue versus SHAM vehicle (=100%) in %",[1]; [6],6 ↑* %
same,"Moment of resistance, SHAM analogue versus SHAM vehicle (=100%) in %",[1]; [6],3 ↑* %
same,"Endosteal circumference, OVX analogue versus OVX vehicle (=100%) in %","[1]; pQCT femur, OVX mice, 8 weeks, decrease (↓), * not significant",2 ↓* %
same,"Cortical BMC, OVX analogue versus OVX vehicle (=100%) in %",[1]; [7],11 ↑ %
same,"Cortical BMD, OVX analogue versus OVX vehicle (=100%) in %",[1]; [7],2 ↑ %
same,"Cortical area, OVX analogue versus OVX vehicle (=100%) in %",[1]; [7],9 ↑ %
same,"Cortical thickness, OVX analogue versus OVX vehicle (=100%) in %",[1]; [7],8 ↑ %
same,"Periosteal circumference, OVX analogue versus OVX vehicle (=100%) in %",[1]; [7],3% and 3 ↑ %
same,"Trabecular BMC, OVX analogue versus OVX vehicle (=100%) in %",[1]; [7],69 ↑ %
same,"Trabecular BMD, OVX analogue versus OVX vehicle (=100%) in %",[1]; [7],57 ↑ %
same,"Trabecular area, OVX analogue versus OVX vehicle (=100%) in %",[1]; [7],8 ↑ %
same,"Endosteal circumference, SHAM analogue versus SHAM vehicle (=100%) in %","[1]; pQCT femur, SHAM mice, 8 weeks, decrease (↓), * not significant",4 ↓* %
same,"Cortical BMC, SHAM analogue versus SHAM vehicle (=100%) in %",[1]; [8],7 ↑ %
same,"Cortical BMD, SHAM analogue versus SHAM vehicle (=100%) in %",[1]; [8],1 ↑ %
same,"Cortical area, SHAM analogue versus SHAM vehicle (=100%) in %",[1]; [8],6 ↑ %
same,"Cortical thickness, SHAM analogue versus SHAM vehicle (=100%) in %",[1]; [8],6 ↑ %
same,"Trabecular BMC, SHAM analogue versus SHAM vehicle (=100%) in %",[1]; [8],83 ↑ %
same,"Trabecular BMD, SHAM analogue versus SHAM vehicle (=100%) in %",[1]; [8],74 ↑ %
same,"Trabecular area, SHAM analogue versus SHAM vehicle (=100%) in %",[1]; [8],7 ↑ %
same,"Periosteal circumference, SHAM analogue versus SHAM vehicle (=100%) in %","[1]; pQCT femur, SHAM mice, 8 weeks, increase (↑), * not significant",1 ↑* %
same,"BMC total body, SHAM + vitaminD analogue vs. SHAM + vehicle (= 100%) in %",[2]; [9],7 ↑ %
same,"BMD spine, SHAM + vitaminD analogue vs. SHAM + vehicle (= 100%) in %",[2]; [9],9 ↑ %
same,"BMD total body, SHAM + vitaminD analogue vs. SHAM + vehicle (= 100%) in %",[2]; [9],4 ↑ %
same,"BMC total body, SHAM + vitaminD analogue vs. SHAM + vehicle (= 100%) in %",[2]; [10],10 ↑ %
same,"BMD spine, SHAM + vitaminD analogue vs. SHAM + vehicle (= 100%) in %",[2]; [10],14 ↑ %
same,"BMD total body, SHAM + vitaminD analogue vs. SHAM + vehicle (= 100%) in %",[2]; [10],5 ↑ %
same,serum calcium levels,"[2]; analogue treated mice, 5 weeks (control mice 11.43±0.78)",11.36 ± 0.56 mg/dL
